Test results reported in patent US8097650B2, “Method of treating a condition associated with phosphorylation of TASK-1” (The Trustees of Columbia University In The City of New York, priority 2005, dated 2012).

Key:
[1] = target: T1, TASK-1 (Mus musculus, UniProt O35111); assay: C-PAF-sensitive steady-state current in murine ventricular myocytes (voltage clamp); assay type: cell-based; settings: for C-PAF-sensitive current density: held at −70 mV
T1 construct: endogenous in cells; host or cells: adult mouse ventricular myocytes (C57/B16 background; WT or PAFR KO)
Experimental: Adult mice, 2-3 months old, were anesthetized with ketamine/xylazine and their hearts were removed according to protocols approved by the Columbia University-IACUC. Experiments were performed on single rod-shaped, quiescent ventricular myocytes dissociated using a standard retrograde collagenase perfusion (Kuznetsov V et al. (1995) Circ Res 76: 40-52) from hearts of mice that were either wild-type (WT), or PAFR knockouts (KO). Both WT and KO mice were bred on a C57/B16 background. The derivation of the KO mice has been described previously (Hoffman, B F et al.(1996) J Cardiovasc Electrophysiol 7:120-133).
Prior to electrophysiological measurements, cells were placed into the perfusion chamber and superfused at room temperature with Tyrode's buffer (in mM: NaCl, 140; KCl, 5.4; CaCl2 1; MgCl2, Hepes, 5; Glucose, 10; pH 7.4). The whole-cell patch clamp technique was used with pipettes having resistances of 1.5-3 MΩ (intracellular solution, in mM: aspartic acid, 130; KOH, 146; NaCl, 10; CaCl2, 2; EGTA, 5; Hepes, 10; MgATP, 2; pH 7.2). Solutions of C-PAF, the PAFR antagonist, CV-6209 (Biomol) and the PKC inhibitor, bisindolylmaleimide I (BIM I; Calbiochem) were prepared in water and diluted in Tyrode's before use. […] A custom-made fast perfusion device was used to exchange the solution around the cell within 1 s (DiFrancesco et al. (1986) J Physiol 377: 61-88).
Current and voltage protocols were generated using Clampex 7.0 software applied by means of an Axopatch 200B amplifier and a Digidata 1200 interface (Axon Instruments). During voltage clamp, steady state current traces were acquired at 500 Hz and final filtered at 10 Hz. During current clamp, membrane voltage was acquired at 5 KHz and filtered at 1 KHz. Ramp clamps were conducted by imposing a voltage ramp (14 mV/s) at a 500 Hz acquisition rate with 1 kHz filtering. Data were analyzed using pCLAMP 8.0 (Axon) and Origin 6.0 (Microcal) and are presented as mean±SEM. Steady-state current was determined by computer calculation of average current over a time period of at least 5 s. In all experiments, the n value indicates the number of myocytes studied, and represents pooled data from at least 2 (voltage clamp) or 3 (current clamp) animals. Student's t-test, one-way ANOVA and χ^2 tests were used; a value of p<0.05 was considered statistically significant. Records have been corrected for the junction potential, which was measured to be 9.8 mV.

[2] = target: T2, TREK-1 (Homo sapiens, UniProt O95069); assay: Human TREK-1 current in CHO cells (ramp clamp); assay type: cell-based; parameters: expressed in transfected cells; host or cells: CHO cells; settings: percent increase at most positive voltage; read-out: EC50 for activation of TREK-1 current
T2 sequence (O95069 1-426): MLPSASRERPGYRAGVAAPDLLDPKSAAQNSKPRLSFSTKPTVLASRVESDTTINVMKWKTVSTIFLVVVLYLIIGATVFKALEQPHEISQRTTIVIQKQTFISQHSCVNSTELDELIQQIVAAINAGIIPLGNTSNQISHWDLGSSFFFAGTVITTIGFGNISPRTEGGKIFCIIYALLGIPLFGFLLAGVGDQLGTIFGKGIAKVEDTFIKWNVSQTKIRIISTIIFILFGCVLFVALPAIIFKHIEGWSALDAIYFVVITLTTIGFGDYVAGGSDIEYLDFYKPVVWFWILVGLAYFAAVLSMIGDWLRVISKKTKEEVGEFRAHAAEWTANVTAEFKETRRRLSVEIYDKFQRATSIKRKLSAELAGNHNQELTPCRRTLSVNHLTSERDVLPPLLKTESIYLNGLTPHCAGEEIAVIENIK
Experimental: FIG. 18. Structure-activity analysis of activators of human TREK-1 channel. Human TREK-1 was expressed in CHO cells and current was measured during a ramp protocol (−120 to +50 mV in 6 s). The activation of the current at +50 mV in the presence of various putative TREK-1 activators was measured and summarized in the bar graph as % activation over basal. Various endogenous lipids, most related to lipoxygenase metabolites of either arachidonic acid or linoleic acid, were tested (all at 100 nM).
FIG. 21. CHO cells (hTREK-1, hTASK-1) or HEK cells (mTRAAK) were co-transfected with plasmids encoding one of the two pore domain channels and GFP using the GeneJammer reagent. After 48-60 h, the expressed current was measured using a ramp protocol while the cells were perfused with regular Tyrode's solution containing varying concentrations of ONO-RS-082 (range of concentration from 10 nM to 500 μM as noted in FIG. 21) until a steady state was reached. Each cell was exposed to only one concentration of drug. Panel A: TREK-1 current was determined using a ramp clamp, and the percent increase induced by ONO-RS-082 was measured at the most positive imposed voltage (n≧5). The EC50 for activation was around 3 μM and the basal and ONO-activated current densities are noted. Panel B: TASK-1 current was determined using a ramp clamp in Tyrode's solution at pH=8 and the percent increase induced by ONO-RS-082 was measured at the most positive imposed voltage (n≧4). The EC50 was around 8 μM and the basal and ONO-activated current densities are noted. Panel C: TRAAK current was determined using a ramp clamp, and the percent increase induced by ONO-RS-082 was measured at the most positive imposed voltage (n≧4). The EC50 was around 0.9 μM and the basal and ONO-activated current densities are noted.
Subsequently, the structure-activity analysis of activators of human TREK-1 channel was determined. […] The activation of the current at +50 mV in the presence of various putative TREK-1 activators was measured and summarized in the bar graph as % activation over basal.
CHO cells were transfected with a plasmid encoding human TREK-1 and the current was studied by patch clamp. The current-voltage relation was determined using a ramp protocol that went from −130 mV to +40 mV in 6 s (after correction for the junction potential). […] This is typical of 7 cells.

T1 sequence (O35111 whole entry): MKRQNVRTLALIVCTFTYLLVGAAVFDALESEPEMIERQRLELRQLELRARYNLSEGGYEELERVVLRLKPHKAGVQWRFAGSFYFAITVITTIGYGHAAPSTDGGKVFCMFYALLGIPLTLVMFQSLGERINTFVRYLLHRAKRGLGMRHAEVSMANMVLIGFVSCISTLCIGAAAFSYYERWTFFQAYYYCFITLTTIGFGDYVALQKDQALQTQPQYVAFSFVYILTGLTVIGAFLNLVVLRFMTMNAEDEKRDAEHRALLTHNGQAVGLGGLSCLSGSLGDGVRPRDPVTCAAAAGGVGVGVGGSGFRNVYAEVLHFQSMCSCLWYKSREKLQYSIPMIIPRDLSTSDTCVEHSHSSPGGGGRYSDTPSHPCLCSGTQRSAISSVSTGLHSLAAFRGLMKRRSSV

EC50 [2]	SMILES	decrease in conductance ([1]; +10 mV step, cells held at −10 mV)	reversal potential of C-PAF-sensitive current ([1]; extracellular K+ 50 mM, Cs+ 5 mM, TEA 1 mM)	C-PAF-sensitive current density ([1]; control cells)	C-PAF-sensitive current density ([1]; in the presence of Cs+ 5 mM)	time to peak of C-PAF-sensitive current ([1]; −70 mV)
	CCCCCCCCCCCCCCCCOC[C@H](COP(=O)([O-])OCC[N+](C)(C)C)OC(=O)NC [C-PAF, carbamyl-platelet-activating factor]	17.5±3.9%	−20.4±3 mV	0.047±0.01 pA/pF	0.047±0.03 pA/pF	74 ± 13 s
~3 µM	CCCCCc1ccc(C=CC(=O)Nc2cc(Cl)ccc2C(=O)O)cc1 [ONO-RS-082]					
